Measurements as given in US20050100983A1, “Cell-free methods for identifying compounds that affect toll-like receptor 9 (TLR9) signaling” (Coley Pharmaceutical GmbH, priority 2003, published 2005).

Legend:
mTLR9ect = target: T1, mTLR9ect (Mus musculus, UniProt Q9EQU3); experiment: UV-crosslinking of mTLR9ect with 32P-labeled DNA and SDS-PAGE; assay type: binding, murine; conditions: SDS-PAGE, complex at 150 kDa
T1 construct: mTLR9ect (aa 1-816); made in house
T1 sequence (Q9EQU3 26-816): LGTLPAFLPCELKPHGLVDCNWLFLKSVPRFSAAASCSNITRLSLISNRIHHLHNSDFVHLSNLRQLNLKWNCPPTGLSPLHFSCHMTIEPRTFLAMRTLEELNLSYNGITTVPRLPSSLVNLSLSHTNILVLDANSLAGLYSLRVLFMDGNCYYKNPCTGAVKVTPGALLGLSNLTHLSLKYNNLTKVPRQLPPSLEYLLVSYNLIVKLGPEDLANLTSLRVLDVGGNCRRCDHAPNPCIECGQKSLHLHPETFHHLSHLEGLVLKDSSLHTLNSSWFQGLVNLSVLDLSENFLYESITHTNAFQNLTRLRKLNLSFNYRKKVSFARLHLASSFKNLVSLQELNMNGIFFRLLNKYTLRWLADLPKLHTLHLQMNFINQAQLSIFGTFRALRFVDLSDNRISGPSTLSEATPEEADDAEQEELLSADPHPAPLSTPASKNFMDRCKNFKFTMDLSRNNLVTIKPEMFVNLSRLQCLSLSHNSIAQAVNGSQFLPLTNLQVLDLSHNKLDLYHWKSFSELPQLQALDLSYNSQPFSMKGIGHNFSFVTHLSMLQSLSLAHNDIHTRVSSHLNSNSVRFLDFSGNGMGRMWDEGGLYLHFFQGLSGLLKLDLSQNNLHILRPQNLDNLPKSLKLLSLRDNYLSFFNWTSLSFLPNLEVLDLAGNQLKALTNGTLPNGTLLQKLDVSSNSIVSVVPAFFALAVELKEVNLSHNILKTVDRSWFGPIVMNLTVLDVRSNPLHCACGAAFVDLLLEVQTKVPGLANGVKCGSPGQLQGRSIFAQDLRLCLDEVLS
Source text: FIG. 1B is an image of an SDS-PAGE gel depicting purified proteins from FIG. 1A UV-crosslinked with ^32P-labeled CpG- or non-CpG-DNA, separated by SDS-PAGE, and autoradiographed. TLR9 and free DNA are highlighted.
Bauer S et al. (2001) Proc. Natl. Acad. Sci. U.S.A. 98:9237-9242. To assess binding of TLR9 to CpG-DNA, a recombinant fusion protein consisting of the extracellular domain of murine TLR9 and human IgG 1-Fc (mTLR9ect) was constructed. The extracellular domain of murine TLR2 also fused to IgG1-Fc (mTLR2ect) served as control. Proteins were expressed in HEK 293 cells and purified via protein A affinity chromatography (FIG. 1A). Under denaturing and non-reducing conditions mTLR9ect and mTLR2ect are approximately 10% in a monomeric and 90% in a dimeric form. Dimerization of the proteins is probably mediated by the IgG 1-Fc fusion partner which forms disulfide bonds (FIG. 1A). Initially, binding of mTLR9ect to radiolabeled DNA was determined by UV-crosslinking and subsequent SDS-PAGE.

[1] = test system: mTLR9mut (D535→A and Y537→A); experiment: NF-κB luciferase assay, HEK 293 cells transfected with mutated full length mTLR9; assay type: cell-based, murine; conditions: 1 μM CpG-DNA
Procedure: FIG. 3D is a bar graph depicting activation of mTLR9- and mTLR9mut-transfected cells from FIG. 3C. Cells were stimulated with 1 μM CpG-DNA or 10 ng/ml of the TLR-independent stimulus 12-O-tetradecanoylphorbol 13-acetate (TPA) and subsequent NF-κB induction was analyzed. Activation is expressed as fold induction compared to no stimulation.
Mutation. For mutation of wild-type mTLR9 amino acids D535 and Y537 to two alanines, the primers 5′-[…]-3′ (SEQ ID NO:5) and 5′-[…]-3′ (SEQ ID NO:6) were used to generate mTLR9-mut. A site-specific-mutagenesis kit from Stratagene (Amsterdam, Netherlands) was applied according to the manufacturer's protocol. All PCR fragments were sequenced and found error-free.
NF-κB luciferase assay. For monitoring transient NF-κB activation, 3×10^6 HEK 293 cells were electroporated at 200 volt and 950 μF with 20 ng of a NF-κB luciferase reporter plasmid (kindly provided by Patrick Baeuerle, Munich, Germany) and 1 μg mTLR2 (kindly provided by Tularik, Inc., South San Francisco, USA), mTLR9, or mTLR9-mut expression plasmid. Cells were seeded at 10^5 cells per well and after overnight culture stimulated with 1 μM phosphorothioated CpG-DNA 1668 (SEQ ID NO:1), 1 μM non-CpG-DNA 1668GC (SEQ ID NO:3), 1 μg/ml Pam3CysK4 or 1 μg/ml PHCK4 for further 8 hours. […]

murine TLR9 = conditions: read-out: concentration for half-maximal activation of murine TLR9; cited from earlier work

Substance: 5′-TCCATGACGTTCCTGATGCT-3′ (chemistry not given here) [CpG-DNA 1668, synthetic CpG oligodeoxynucleotide, TLR9 ligand]
- binding of mTLR9ect to radiolabeled DNA (mTLR9ect): bound
- response of cells with mutated full length mTLR9 to CpG-DNA (NF-κB induction) [1]: did not respond
- EC50 (murine TLR9): 0.07 µM
